Tests used:
[1] = biological target: T1, OCTN2 (organic cation/carnitine transporter 2) (Homo sapiens, UniProt O76082); test: in vitro; settings: HeLa cells that express OCTN2, probe TEA, 20 uM
T1 sequence (O76082 whole entry): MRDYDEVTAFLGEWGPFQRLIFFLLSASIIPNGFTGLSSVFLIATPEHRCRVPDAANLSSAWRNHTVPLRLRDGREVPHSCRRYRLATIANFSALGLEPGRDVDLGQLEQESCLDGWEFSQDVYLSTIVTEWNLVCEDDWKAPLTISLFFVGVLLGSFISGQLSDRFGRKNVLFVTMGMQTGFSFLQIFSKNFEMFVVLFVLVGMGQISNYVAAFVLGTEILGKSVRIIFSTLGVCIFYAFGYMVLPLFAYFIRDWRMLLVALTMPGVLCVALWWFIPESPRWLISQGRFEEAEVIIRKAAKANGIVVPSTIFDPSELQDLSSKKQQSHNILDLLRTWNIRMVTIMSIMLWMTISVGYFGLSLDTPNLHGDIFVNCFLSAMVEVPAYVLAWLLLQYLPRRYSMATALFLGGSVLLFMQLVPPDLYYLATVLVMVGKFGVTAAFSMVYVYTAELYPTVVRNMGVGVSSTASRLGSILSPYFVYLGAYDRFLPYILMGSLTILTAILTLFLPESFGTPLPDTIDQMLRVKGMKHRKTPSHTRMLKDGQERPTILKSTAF
Description: TP_TRANSPORTER: inhibition of TEA uptake (TEA: 20 uM, Cimetidine: 5000 uM) in OCTN2-expressing HeLa cells

[2] = biological target: T1, OCTN2 (organic cation/carnitine transporter 2); test: TP_TRANSPORTER: inhibition of TEA uptake (TEA: 20 uM Procainamide: 5000 uM) in OCTN2-expressing HeLa cells; format: functional, cell-based; parameters: scale not given: the % may be the effect or the level left; settings: HeLa cells that express OCTN2, probe TEA, read-out: Activity
[3] = biological target: T2, Organic cation/carnitine transporter 2 (Homo sapiens, UniProt O76082); test: TP_TRANSPORTER: inhibition of TEA uptake (TEA: 20 uM, Amphetamine: 5000 uM) in OCTN2-expressing HeLa cells; format: functional, cell-based
T2 sequence (O76082 whole entry): T1 sequence (O76082 whole entry)

[4] = biological target: T2, Organic cation/carnitine transporter 2; test: TP_TRANSPORTER: inhibition of TEA uptake (TEA: 20 uM, Guanidine: 5000 uM) in OCTN2-expressing HeLa cells; format: functional, cell-based
[5] = biological target: T2, Organic cation/carnitine transporter 2; test: TP_TRANSPORTER: inhibition of TEA uptake (TEA: 20 uM, MPP+: 5000 uM) in OCTN2-expressing HeLa cells; format: functional, cell-based; parameters: scale not given: the % may be the effect or the level left
[6] = biological target: T1, OCTN2 (organic cation/carnitine transporter 2); test: in vitro; settings: HeLa cells that express OCTN2, probe TEA, 20 uM; remark: listed apart in the source
Description: TP_TRANSPORTER: inhibition of TEA uptake (TEA: 20 uM, Choline: 5000 uM) in OCTN2-expressing HeLa cells

[7] = biological target: T1, OCTN2 (organic cation/carnitine transporter 2); test: in vitro; settings: HeLa cells that express OCTN2, probe TEA, 20 uM; remark: listed apart in the source
Description: TP_TRANSPORTER: inhibition of TEA uptake (TEA: 20 uM, Nicotine: 5000 uM) in OCTN2-expressing HeLa cells

[8] = biological target: T1, OCTN2 (organic cation/carnitine transporter 2); test: TP_TRANSPORTER: inhibition of TEA uptake (TEA: 20 uM, Methamphetamine: 5000 uM) in OCTN2-expressing HeLa cells; format: functional, cell-based; parameters: scale not given: the % may be the effect or the level left; settings: HeLa cells that express OCTN2, probe TEA, read-out: Activity

SMILES: CN/C(=N/CCSCc1nc[nH]c1C)NC#N [CIMETIDINE]
- activity at 5000 µM [1]: 39%

SMILES: CCN(CC)CCNC(=O)c1ccc(N)cc1 [PROCAINAMIDE]
- activity at 5000 µM [2]: 39%

SMILES: CC(N)Cc1ccccc1 (stereo not drawn) [AMPHETAMINE]
- Activity [3]: is not an inhibitor [-]

SMILES: N=C(N)N [GUANIDINE]
- Activity [4]: is not an inhibitor [-]

SMILES: C[n+]1ccc(-c2ccccc2)cc1
- Activity [5]: 39%

SMILES: C[N+](C)(C)CCO [CHOLINE]
- activity at 5000 µM [6]: 75%

SMILES: CN1CCC[C@H]1c1cccnc1 [NICOTINE]
- activity at 5000 µM [7]: 44%

SMILES: CN[C@@H](C)Cc1ccccc1 [METHAMPHETAMINE]
- activity at 5000 µM [8]: 66%
